In patent US7045532B2 (Millennium Pharmaceuticals, Inc., priority 1999, dated 2006):

Tests used:
[1] = target: T1, ACE-2 (Homo sapiens, UniProt Q9BYF1); assay: ACE-2 Competitive Substrate Assay (ACS Assay); type: biochemical; details: Ki class; compounds tested in 5% DMSO, 12 concentrations; read-out: Human ACE-2 Activity
T1 construct: a stop codon inserted after the serine immediately preceding the transmembrane domain; made in house; host or cells: CHO K1 cells (transient transfection, purified from conditioned medium)

[2] = target: ACE-2 (Rattus norvegicus, UniProt Q5EGZ1); assay: ACE-2 Competitive Substrate Assay, rat ACE-2; type: biochemical; details: Ki class; compounds tested in 5% DMSO, 12 concentrations
[3] = target: T2, ACE (Sigma, A2580) (Sus scrofa, UniProt F1RRW5); assay: ACE enzymatic activity assay; type: biochemical, porcine; details: Ki class; compounds tested in 5% DMSO, 12 concentrations
T2 construct: ACE from porcine kidney; purchased Sigma A2580; host or cells: porcine kidney
T2 sequence (F1RRW5 34-1309): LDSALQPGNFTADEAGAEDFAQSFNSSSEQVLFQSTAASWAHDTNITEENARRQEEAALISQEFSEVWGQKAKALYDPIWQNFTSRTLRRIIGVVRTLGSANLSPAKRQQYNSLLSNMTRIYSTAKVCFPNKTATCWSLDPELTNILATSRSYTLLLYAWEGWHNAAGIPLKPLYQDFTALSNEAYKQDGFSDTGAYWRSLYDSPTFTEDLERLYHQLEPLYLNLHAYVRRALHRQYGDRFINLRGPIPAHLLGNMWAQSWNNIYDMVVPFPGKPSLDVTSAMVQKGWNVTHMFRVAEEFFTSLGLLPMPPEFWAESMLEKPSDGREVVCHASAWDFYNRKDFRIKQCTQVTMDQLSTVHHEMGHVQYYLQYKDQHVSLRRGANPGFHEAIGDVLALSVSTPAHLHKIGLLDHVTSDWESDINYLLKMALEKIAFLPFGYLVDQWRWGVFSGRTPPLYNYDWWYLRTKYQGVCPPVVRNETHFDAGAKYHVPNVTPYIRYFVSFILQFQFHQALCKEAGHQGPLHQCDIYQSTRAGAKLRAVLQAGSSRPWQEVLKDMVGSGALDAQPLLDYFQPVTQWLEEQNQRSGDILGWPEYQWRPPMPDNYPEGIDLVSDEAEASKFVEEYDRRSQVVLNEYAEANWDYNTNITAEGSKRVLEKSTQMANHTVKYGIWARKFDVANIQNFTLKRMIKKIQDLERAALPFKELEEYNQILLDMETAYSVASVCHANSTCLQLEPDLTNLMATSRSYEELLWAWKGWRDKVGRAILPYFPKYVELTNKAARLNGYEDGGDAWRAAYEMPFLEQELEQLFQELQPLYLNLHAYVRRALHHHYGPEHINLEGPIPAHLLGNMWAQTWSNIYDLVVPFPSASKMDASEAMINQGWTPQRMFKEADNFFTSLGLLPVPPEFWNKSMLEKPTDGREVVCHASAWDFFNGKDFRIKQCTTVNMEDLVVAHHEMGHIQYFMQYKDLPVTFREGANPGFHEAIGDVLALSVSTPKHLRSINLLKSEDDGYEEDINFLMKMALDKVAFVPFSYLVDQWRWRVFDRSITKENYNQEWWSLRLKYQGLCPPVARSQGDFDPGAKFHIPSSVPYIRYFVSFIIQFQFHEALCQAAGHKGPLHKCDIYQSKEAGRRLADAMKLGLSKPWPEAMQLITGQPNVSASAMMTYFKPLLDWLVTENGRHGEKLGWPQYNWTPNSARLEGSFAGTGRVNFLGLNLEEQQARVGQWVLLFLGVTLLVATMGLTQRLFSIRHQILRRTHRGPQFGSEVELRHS
Outline: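 ACE (1 nM final) in 50 mM HEPES, 300 mM NaCl, 0.01% Brij-35, pH 7.5, with compound in 5% DMSO at 12 concentrations, 25 °C. Substrate cleavage run ~30 min, stopped with EDTA; fluorescence read at excitation 320 nm, emission 405 nm.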

[4] = target: T3, Carboxypeptidase A (Bos taurus, UniProt P00730); assay: Carboxypeptidase A activity assay; type: biochemical; details: Ki class; compounds tested in 5% DMSO, 12 concentrations
T3 sequence (P00730 111-419): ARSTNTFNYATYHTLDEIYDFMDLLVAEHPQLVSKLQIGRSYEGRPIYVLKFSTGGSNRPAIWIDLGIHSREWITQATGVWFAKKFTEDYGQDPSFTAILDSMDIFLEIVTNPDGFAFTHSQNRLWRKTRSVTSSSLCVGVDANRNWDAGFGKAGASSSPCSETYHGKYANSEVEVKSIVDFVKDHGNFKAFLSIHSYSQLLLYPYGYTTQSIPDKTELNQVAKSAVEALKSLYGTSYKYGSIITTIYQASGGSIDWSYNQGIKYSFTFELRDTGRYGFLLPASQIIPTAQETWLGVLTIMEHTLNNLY
Outline: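 Bovine carboxypeptidase A activity followed at 328 nm in 5% DMSO, reaction stopped with EDTA. Activity measured at 12 compound concentrations. Ki derived from apparent Ki as Ki=Kiapp/(1+[S]/Km).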

Sequence of ACE-2 (Rattus norvegicus, UniProt Q5EGZ1) (Q5EGZ1 18-805): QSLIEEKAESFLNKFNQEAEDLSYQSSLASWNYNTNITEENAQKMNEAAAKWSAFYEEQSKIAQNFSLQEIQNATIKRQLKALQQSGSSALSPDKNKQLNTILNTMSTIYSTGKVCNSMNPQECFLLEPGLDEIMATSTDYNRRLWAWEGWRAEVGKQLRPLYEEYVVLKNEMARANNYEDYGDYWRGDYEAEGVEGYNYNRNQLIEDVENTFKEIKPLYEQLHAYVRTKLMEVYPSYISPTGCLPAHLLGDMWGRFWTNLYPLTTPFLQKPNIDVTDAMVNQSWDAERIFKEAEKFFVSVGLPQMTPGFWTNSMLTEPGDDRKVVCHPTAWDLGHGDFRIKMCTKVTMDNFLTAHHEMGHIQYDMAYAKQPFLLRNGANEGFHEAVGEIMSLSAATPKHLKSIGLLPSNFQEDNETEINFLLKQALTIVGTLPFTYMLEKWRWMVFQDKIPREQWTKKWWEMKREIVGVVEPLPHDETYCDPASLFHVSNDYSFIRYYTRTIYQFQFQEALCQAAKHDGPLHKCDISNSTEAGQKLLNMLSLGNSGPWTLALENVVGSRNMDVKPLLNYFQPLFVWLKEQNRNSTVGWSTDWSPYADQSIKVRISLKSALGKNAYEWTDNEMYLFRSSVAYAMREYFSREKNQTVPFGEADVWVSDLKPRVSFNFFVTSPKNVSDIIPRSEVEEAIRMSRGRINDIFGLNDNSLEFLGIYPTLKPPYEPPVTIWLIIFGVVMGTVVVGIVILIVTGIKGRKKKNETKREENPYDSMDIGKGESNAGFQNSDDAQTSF
T1 sequence (Q9BYF1 18-740 limits assumed): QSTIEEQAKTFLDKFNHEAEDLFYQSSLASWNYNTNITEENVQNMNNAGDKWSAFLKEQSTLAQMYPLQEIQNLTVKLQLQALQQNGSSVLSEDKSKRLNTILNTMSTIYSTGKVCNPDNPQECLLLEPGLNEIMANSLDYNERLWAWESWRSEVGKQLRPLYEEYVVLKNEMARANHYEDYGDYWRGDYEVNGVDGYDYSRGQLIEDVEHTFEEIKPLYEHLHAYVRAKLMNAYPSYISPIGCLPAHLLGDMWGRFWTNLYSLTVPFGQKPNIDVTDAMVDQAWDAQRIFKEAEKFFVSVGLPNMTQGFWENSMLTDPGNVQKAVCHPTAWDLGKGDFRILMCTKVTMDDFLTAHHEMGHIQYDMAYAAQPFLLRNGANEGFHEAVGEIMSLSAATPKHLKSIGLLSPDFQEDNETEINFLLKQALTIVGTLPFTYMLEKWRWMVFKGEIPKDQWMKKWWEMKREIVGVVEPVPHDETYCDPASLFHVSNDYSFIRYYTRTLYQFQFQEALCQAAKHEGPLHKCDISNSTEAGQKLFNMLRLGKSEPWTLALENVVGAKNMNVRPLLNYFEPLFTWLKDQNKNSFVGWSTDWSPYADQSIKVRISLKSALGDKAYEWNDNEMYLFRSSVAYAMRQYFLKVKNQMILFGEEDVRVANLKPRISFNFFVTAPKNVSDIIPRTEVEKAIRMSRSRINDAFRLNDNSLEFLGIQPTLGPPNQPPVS

| SMILES | Ki [1] [µM] | Ki [2] [µM] | Ki [3] [µM] | Ki [4] [µM] |
| --- | --- | --- | --- | --- |
| COC(=O)[C@H](CC(C)C)NCC(=O)[C@H](Cc1ccccc1)NC(=O)OCc1ccccc1 [DI, 2-(3-Benzyloxycarbonylamino-2-oxo-4-phenyl-butylamino)-4-methyl-pentanoic acid methylester] | > 0.5 | > 0.5 | > 50 | 10 to 50 |
| CCCCC(N[C@@H](Cc1cncn1Cc1ccccc1)C(=O)O)C(=O)O (single isomer, unassigned) [FY, 2-[2-(3H-Benzyl-3-imidazol-4-yl)-1-carboxy-ethylamino]-hexanoicacid] | > 0.5 | < 0.1 | > 50 | > 50 |
| CC(C)C[C@@H](N[C@@H](C(=O)O)c1ccccc1)C(=O)O [BT, 2-[(Carboxy-phenyl-methyl)-amino]-4-methyl-pentanoic acid] | > 0.5 | > 0.5 | > 50 | > 50 |
| CC(C)(C)C[C@H](N[C@@H](C(=O)O)c1ccccc1)C(=O)O [CJ, 2-[(Carboxy-phenyl-methyl)-amino]-4,4-dimethyl-pentanoic acid] | > 0.5 | > 0.5 | > 50 | > 50 |
| CC(C)CC(N[C@@H](Cc1c[nH]cn1)C(=O)Nc1ccc([N+](=O)[O-])cc1)C(=O)O (single isomer, unassigned) [EX, 2-[2-(1H-Imidazol-4-yl)-1-(4-nitro-phenylcarbamoyl)ethylamino]-4-methyl-pentanoic acid] | > 0.5 | > 0.5 | > 50 | > 50 |
| CC(C)CC(N[C@@H](Cc1cn(-c2ccc([N+](=O)[O-])cc2[N+](=O)[O-])cn1)C(=O)O)C(=O)O (stereo in doubt) [EG, 2-[1-Carboxy-2-[1-(2,4-dinitro-phenyl)-1H-imidazol-4-yl]-ethylamino)4-methyl-pentanoic acid] | > 0.5 | > 0.5 | 10 to 50 | > 50 |
| CC(C)CC(N[C@@H](Cc1cncn1COCc1ccccc1)C(=O)O)C(=O)O (some centres unmarked) [DX, 2-[2-(3-Benzyloxymethyl-3H-imidazol-4-yl)-1-carboxy-ethylamino]-4-methyl-pentanoic acid] | 0.1 to 0.5 | 0.1 to 0.5 | > 50 | > 50 |
| O=C(O)[C@H](CC#Cc1ccccc1)N[C@@H](CCc1ccccc1)C(=O)O [DS, 2-(1-Carboxy-3-phenyl-propylamino)-5-phenyl-pent-4-ynoic acid] | > 0.5 | 0.1 to 0.5 | > 50 | 10 to 50 |
| CC(C)CC(N[C@@H](Cc1cnc[nH]1)C(=O)NCCc1ccccc1)C(=O)O (single isomer, unassigned) [FW, 2-[2-(3H-Imidazol-4-yl)-1-phenethylcarbamoyl-ethylamino]-4-methyl-pentanoic acid] | > 0.5 | > 0.5 | > 50 | > 50 |
| CC(C)CC(N[C@@H](Cc1cncn1Cc1cccc2ccccc12)C(=O)O)C(=O)O (single isomer, unassigned) [GK, 2-[1-Carboxy-2-(3-naphthalen-1-ylmethyl-3Himidazol-4-yl)-ethylamino]4-methyl-pentanoic acid] | < 0.1 | < 0.1 | > 50 | 10 to 50 |
| CC(C)CC(N[C@@H](Cc1cncn1COCc1ccccc1)C(=O)O)C(=O)O (single isomer, unassigned) [EO, 2-[2-(3-Benzyloxymethyl-3H-imidazol-4-yl)-1-carboxy-ethylamino]-4-methyl-pentanoic acid] | > 0.5 | > 0.5 | > 50 | > 50 |
| CC(C)CC(N[C@@H](Cc1cn(Cc2ccc(Cl)cc2)cn1)C(=O)O)C(=O)O (some centres unmarked) [EC, 2-{1-Carboxy-2-[1-(4-chloro-benzyl}-1H-imidazol-4-yl]-ethylamino)4-methyl-pentanoic acid] | > 0.5 | > 0.5 | 10 to 50 | < 10 |
| O=C(O)C(Cc1ccccc1)N[C@@H](Cc1cncn1Cc1ccccc1)C(=O)O (single isomer, unassigned) [GF, 3-(3-Benzyl-3H-imidazol-4-yl)-2-(1-carboxy-2-phenyl-ethylamino)-propionic acid] | > 0.5 | 0.1 to 0.5 | > 50 | < 10 |
| CCCCC(N[C@@H](Cc1cncn1Cc1ccccc1)C(=O)O)C(=O)O (single isomer, unassigned) [FZ, 2-[2-(3-Benzyl-3H-imidazol-4-yl)-1-carboxy-ethylamino]-hexanoicacid] | – | > 0.5 | > 50 | > 50 |
| O=C(O)C(Cc1ccccc1)N[C@@H](Cc1cnc[nH]1)C(=O)O (some centres unmarked) [EQ, 2-(1-Carboxy-2-phenyl-ethylamino)-3-(1H-imidazol-4-yl)-propionicacid] | – | 0.1 to 0.5 | > 50 | 10 to 50 |

More lines, now with the values ahead:

| Ki [1] [µM] | Ki [2] [µM] | Ki [3] [µM] | Ki [4] [µM] | SMILES |
| --- | --- | --- | --- | --- |
| > 0.5 | 0.1 to 0.5 | > 50 | > 50 | CC(C)CC(NC(Cc1nccs1)C(=O)O)C(=O)O (centres unmarked) [CF, 2-(1-Carboxy-2-thiazol-2-yl-ethylamino)-4-methyl-pentanoic acid] |
| > 0.5 | > 0.5 | 10 to 50 | > 50 | CCCC(N[C@@H](Cc1c[nH]cn1)C(=O)O)C(=O)O (single isomer, unassigned) [DK, 2-[1-Carboxy-2-(1H-imidazol-4-yl)-ethylamino)pentanoic acid] |
| > 0.5 | 0.1 to 0.5 | > 50 | > 50 | CC(C)CC(N[C@@H](Cc1nc[nH]n1)C(=O)O)C(=O)O (some centres unmarked) [CD, 2-[1-Caboxy-2-(1H-[1,2,4]triazol-3-yl)-ethylamino]-4-methyl-pentanoic acid] |
| > 0.5 | 0.1 to 0.5 | 10 to 50 | > 50 | O=C(O)C(CCc1ccccc1)N[C@@H](Cc1c[nH]cn1)C(=O)O (some centres unmarked) [DP, 2-[1-Carboxy-2-(1H-imidazol-4-yl)-ethylamino]4-phenyl-butync acid] |
| > 0.5 | > 0.5 | > 50 | > 50 | CC(C)CC(N[C@H](Cc1cn(C)cn1)C(=O)O)C(=O)O (some centres unmarked) [CA, 2-[-Carboxy-2-(1-methyl-1H-imidazol-4-yl)-ethylamino]-4-methyl-pentanoic acid] |
| > 0.5 | > 0.5 | > 50 | > 50 | CCCCCC[C@H](N[C@H](Cc1c[nH]cn1)C(=O)O)C(=O)O [CR, 2-[1-Carboxy-2-(1H-imidazol-4-yl)-ethylamino)octanoic acid] |
| > 0.5 | > 0.5 | 10 to 50 | > 50 | CCC(C)C(N[C@H](Cc1c[nH]cn1)C(=O)O)C(=O)O (stereo in doubt) [BE, 2-[1-Carboxy-2-(1H-imidazol-4-yl)-ethylamino]-3-methyl-pentanoic acid] |
| – | > 0.5 | 10 to 50 | > 50 | CCCCC(N[C@@H](Cc1c[nH]cn1)C(=O)O)C(=O)O (single isomer, unassigned) [EF, 2-[1-Carboxy-2-(1H-imidazol-4-yl)-ethylamino]hexanoic acid] |
